Test results published in patent publication US9682978B2, “2,6,7 substituted purines as HDM2 inhibitors” (Merck Sharp & Dohme Corp., priority 2013, dated 2017).

Target: T1, HDM2 (Homo sapiens, UniProt Q00987)
T1 construct: Thioredoxin (N); made in house; host or cells: E. coli BL21(DE3)Rosetta (pET32a)
Assay: HDM2 FRET assay (inhibition of p53 peptide binding to HDM2)
Details: for IC50: truncated HDM2 residues 17 to 125, 0.5 nM HDM2, 3 nM FITC labeled 8-mer peptide, two hour incubation; for inhibition at 1 µM: Table 1, printed in the FRET IC50 column, at 1000 nM compound
Source text: Methods: An HDM2 FRET assay was developed to assess the compounds' inhibitory activity towards binding of p53 protein. A truncated version of HDM2 with residues 17 to 125 (containing p53 binding surface, Science (1994) 265, 346-355), with N-terminal His and Thioredoxin tag was generated in pET32a expression vector and expressed in E. coli strain BL21(DE3)Rosetta. Protein was purified using Ni-affinity chromatography, followed by size exclusion chromatography using Superdex 75 26/60 column. To assess inhibition of p53 binding to HDM2, a FITC labeled 8-mer peptide (sequence: Ac-Phe-Arg-Dpr-Ac6c-(6-Br)Trp-Glu-Glu-Leu-NH2; Anal Biochem. 2004 Aug. 1; 331(1):138-46) with strong affinity towards p53 binding pocket of HDM2 was used. The HDM2 assay buffer contained 1× Phosphate Buffered Saline (Invitrogen, Cat#14190), 0.01% BSA (Jackson ImmunoResearch, Cat#001-000-162), 0.01% Tween-20. In the 1× assay buffer recombinant HDM2 protein, peptide and Lumi4-Tb Cryptate-conjugate mouse anti-6×HIS antibody (cisbio, Cat#Tb61HISTLB) were added and transferred to ProxiPlate PLUS (PerkinElmer, Cat#6008269), containing compounds so that final DMSO concentration is 0.1%. Final concentrations of reagents in the assay wells are 0.5 nM HDM2, 0.25 nM anti HIS (Tb label) antibody and 3 nM peptide. After two hour incubation at room temperature in a humidified chamber plates were read on EnVision plate reader with the following settings: excitation: UV, […], two emission filters: 520 nm and 495 nm respectively. Ratio of em520/em495 was used to calculate % inhibition and to obtain IC50 with 4-parameter logistic equation.
IC50 DETERMINATIONS: Dose-response curves were plotted from the inhibition data, from 10 point serial dilutions of inhibitory compounds. Concentration of compound was plotted against em520/Cem495 ratio signal. To generate IC50 values, the dose-response curves were fitted to a standard sigmoidal curve and IC50 values were derived by nonlinear regression analysis. IC50 values in the above table are rounded to the nearest integer.

T1 sequence (Q00987 17-125): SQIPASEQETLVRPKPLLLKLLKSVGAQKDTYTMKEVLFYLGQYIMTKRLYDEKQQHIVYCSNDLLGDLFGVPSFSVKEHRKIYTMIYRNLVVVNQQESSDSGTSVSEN

Structure (SMILES)	IC50 (Table 2)	IC50 (Table 3)	further results
C[C@H]1CC[C@H](Cn2cnc3nc(-c4noc(=O)[nH]4)nc(-c4cc(Cl)cnc4O)c32)CC1 [Example 2.16, 3-{6-(5-chloro-2-hydroxypyridin-3-yl)-7-[(trans-4-methylcyclohexyl)methyl]-7H-purin-2-yl}-1,2,4-oxadiazol-5(4H)-one]	87.6 nM	–	–
CS(=O)(=O)c1cc(Cl)cc(-c2nc(-c3noc(=O)[nH]3)nc3ncn(C[C@H]4CC[C@H](C)CC4)c23)c1 [Example 2.17, 3-{6-[3-chloro-5-(methylsulfonyl)phenyl]-7-[(trans-4-methylcyclohexyl)methyl]-7H-purin-2-yl}-1,2,4-oxadiazol-5(4H)-one]	250 nM	–	–
C[C@@H](Nc1nc(-c2nc(=O)n(C)[nH]2)nc2ncn(C[C@H]3CC[C@H](C)CC3)c12)C1CCC1 [Example 1.3, 5-(6-{[(1R)-1-cyclobutylethyl]amino}-7-[(trans-4-methylcyclohexyl)methyl]-7H-purin-2-yl)-2-methyl-1,2-dihydro-3H-1,2,4-triazol-3-one]	–	–	IC50 (Table 1): 71.1 nM
C[C@H]1CC[C@H](Cn2cnc3nc(-c4noc(=O)[nH]4)nc(-c4cccc(Cl)c4)c32)CC1 [Example 2.1, 3-{6-(3-chlorophenyl)-7-[(trans-4-methylcyclohexyl)methyl]-7H-purin-2-yl}-1,2,4-oxadiazol-5(4H)-one]	53.4 nM	–	–
C[C@@H](Nc1nc(C(=O)O)nc2ncn(CC3CCC4(CC3)CC4)c12)C1CCC1 [Example 3.4, 6-{[(1R)-1-cyclobutylethyl]amino}-7-(spiro[2.5]oct-6-ylmethyl)-7H-purine-2-carboxylic acid]	–	2700 nM	–
CNC(=O)c1cc(Cl)cc(-c2nc(-c3noc(=O)[nH]3)nc3ncn(C[C@H]4CC[C@H](C)CC4)c23)c1 [Example 2.10, 3-chloro-N-methyl-5-{7-[(trans-4-methylcyclohexyl)methyl]-2-(5-oxo-4,5-dihydro-1,2,4-oxadiazol-3-yl)-7H-purin-6-yl}benzamide]	71.8 nM	–	–
C=C1CCC(Cn2cnc3nc(-c4noc(=O)[nH]4)nc(N[C@H](C)C4CCC4)c32)CC1 [Example 3.7, 3-(6-{[(1R)-1-cyclobutylethyl]amino}-7-[(4-methylidenecyclohexyl)methyl]-7H-purin-2-yl)-1,2,4-oxadiazol-5(4H)-one]	–	543 nM	–
COCCOc1cc(Cl)cc(-c2nc(-c3noc(=O)[nH]3)nc3ncn(C[C@H]4CC[C@H](C)CC4)c23)c1 [Example 2.22, 3-{6-[3-chloro-5-(2-methoxyethoxyl)phenyl]-7-[(trans-4-methylcyclohexyl)methyl]-7H-purin-2-yl}-1,2,4-oxadiazol-5(4H)-one]	68.5 nM	–	–
C[C@@H](Nc1nc(C(=O)O)nc2ncn(C[C@H]3CC[C@H](C)CC3)c12)C1CCC1 [Example 1.2, 6-{[(1R)-1-cyclobutylethyl]amino}-7-[(trans-4-methylcyclohexyl)methyl]-7H-purine-2-carboxylic acid]	–	–	IC50 (Table 1): 68.5 nM
C[C@@H](Nc1nc(-c2noc(=O)[nH]2)nc2ncn(Cc3ccc(C(F)(F)F)cc3)c12)C1CCC1 [Example 1.14, 3-(6-{[(1R)-1-cyclobutylethyl]amino}-7-[4-(trifluoromethyl)benzyl]-7H-purin-2-yl)-1,2,4-oxadiazol-5(4H)-one]	–	–	IC50 (Table 1): 21.6 nM
C[C@H]1CC[C@H](Cn2cnc3nc(-c4noc(=O)[nH]4)nc(-c4cc(Cl)cc(C(N)=O)c4)c32)CC1 [Example 2.13, 3-chloro-5-{7-[(trans-4-methylcyclohexyl)methyl]-2-(5-oxo-4,5-dihydro-1,2,4-oxadiazol-3-yl)-7H-purin-6-yl}benzamide]	50.8 nM	–	–
O=c1[nH]c(-c2nc(-c3cccc(Cl)c3)c3c(ncn3C[C@H]3CC[C@H](C(F)(F)F)CC3)n2)no1 [Example 3.2, 3-[6-(3-chlorophenyl)-7-{[trans-4-(trifluoromethyl)cyclohexyl]methyl}-7H-purin-2-yl]-1,2,4-oxadiazol-5(4H)-one]	–	437 nM	–
C[C@H]1CC[C@H](Cn2cnc3nc(-c4noc(=O)[nH]4)nc(N4CCCC(C(F)(F)F)C4)c32)CC1 (stereo partly drawn) [Example 1.10, 3-{7-[(trans-4-methylcyclohexyl)methyl]-6-[3-(trifluoromethyl)piperidin-1-yl]-7H-purin-2-yl}-1,2,4-oxadiazol-5(4H)-one]	–	–	inhibition at 1 µM: 37%
C[C@H]1CC[C@H](Cn2cnc3nc(-c4noc(=O)[nH]4)nc(-c4cc(Cl)cc(N5CCCC5)c4)c32)CC1 [Example 2.18, 3-{6-(3-chloro-5-pyrrolidin-1-ylphenyl)-7-[(trans-4-methylcyclohexyl)methyl]-7H-purin-2-yl}-1,2,4-oxadiazol-5(4H)-one]	331 nM	–	–
CC1=C(F)CC(Cn2cnc3nc(-c4noc(=O)[nH]4)nc(N[C@H](C)C4CCC4)c32)CC1 (mixture of isomers) [Example 3.6, 3-(6-{[(1R)-1-cyclobutylethyl]amino}-7-[(3-fluoro-4-methylcyclohex-3-en-1-yl)methyl]-7H-purin-2-yl)-1,2,4-oxadiazol-5(4H)-one]	–	149 nM	–
C[C@H]1CC[C@H](Cn2cnc3nc(-c4noc(=O)[nH]4)nc(-c4cc(Cl)ccn4)c32)CC1 [Example 2.3, 3-{6-(4-chloropyridin-2-yl)-7-[(trans-4-methylcyclohexyl)methyl]-7H-purin-2-yl}-1,2,4-oxadiazol-5(4H)-one]	251 nM	–	–
C[C@@H](Nc1nc(-c2noc(=O)[nH]2)nc2ncn(C[C@H]3CC[C@H](C(F)(F)F)CC3)c12)C1CCC1 [Example 3.1, 3-(6-{[(1R)-1-cyclobutylethyl]amino}-7-{[trans-4-(trifluoromethyl)cyclohexyl]methyl}-7H-purin-2-yl)-1,2,4-oxadiazol-5(4H)-one]	–	116 nM	–
C[C@H]1CC[C@H](Cn2cnc3nc(-c4noc(=O)[nH]4)nc(-c4cc(Cl)cc(C(F)(F)F)c4)c32)CC1 [Example 2.11, 3-{6-[3-chloro-5-(trifluoromethyl)phenyl]-7-[(trans-4-methylcyclohexyl)methyl]-7H-purin-2-yl}-1,2,4-oxadiazol-5(4H)-one]	172 nM	–	–
CCC1CCC(Cn2cnc3nc(-c4noc(=O)[nH]4)nc(N[C@H](C)C4CCC4)c32)C1 (mixture of isomers) [Example 3.10, 3-(6-(((R)-1-cyclobutylethyl)amino)-7-((3-ethylcyclopentyl)methyl)-7H-purin-2-yl)-1,2,4-oxadiazol-5(4H)-one]	–	313 nM	–
CCC1CCC(Cn2cnc3nc(C(=O)O)nc(N[C@H](C)C4CCC4)c32)C1 (single isomer, unassigned) [Example 3.12]	–	146 nM	–
CCC1CCC(Cn2cnc3nc(C(=O)O)nc(N[C@H](C)C4CCC4)c32)C1 (single isomer, unassigned) [Example 3.11]	–	677 nM	–
C[C@@H]1CC[C@@H](Cn2cnc3nc(-c4noc(=O)[nH]4)nc(-c4cccc(Cl)c4)c32)CC1(F)F (single isomer, unassigned) [Example 3.15, 3-[6-(3-chlorophenyl)-7-{[(trans)-3,3-difluoro-4-methylcyclohexyl]methyl}-7H-purin-2-yl]-1,2,4-oxadiazol-5(4H)-one]	–	430 nM	–
C[C@H]1CC[C@H](Cn2cnc3nc(-c4noc(=O)[nH]4)nc(N4CCCC(F)(F)C4)c32)CC1 [Example 1.6, 3-{6-(3,3-difluoropiperidin-1-yl)-7-[(trans-4-methylcyclohexyl)methyl]-7H-purin-2-yl}-1,2,4-oxadiazol-5(4H)-one]	–	–	IC50 (Table 1): 820 nM
COC(=O)c1cc(C)cc(-c2nc(-c3noc(=O)[nH]3)nc3ncn(C[C@H]4CC[C@H](C)CC4)c23)c1 [Example 2.19, methyl 3-methyl-5-{7-[(trans-4-methylcyclohexyl)methyl]-2-(5-oxo-4,5-dihydro-1,2,4-oxadiazol-3-yl)-7H-purin-6-yl}benzoate]	579 nM	–	–
COc1cccc(Oc2nc(-c3noc(=O)[nH]3)nc3ncn(C[C@H]4CC[C@H](C)CC4)c23)c1 [Example 1.9, 3-{6-(3-methoxyphenoxy)-7-[(trans-4-methylcyclohexyl)methyl]-7H-purin-2-yl}-1,2,4-oxadiazol-5(4H)-one]	–	–	inhibition at 1 µM: 39%
C[C@@H](Nc1nc(C(=O)NS(=O)(=O)N(C)C)nc2ncn(C[C@H]3CC[C@H](C)CC3)c12)C1CCC1 [Example 1.4, 6-{[(1R)-1-cyclobutylethyl]amino}-N-(dimethylsulfamoyl)-7-[(trans-4-methylcyclohexyl)methyl]-7H-purine-2-carboxamide]	–	–	IC50 (Table 1): 733 nM
